{"source": "patent US20240083846A1", "about": "“SMAC MIMETICS FOR TREATMENT OF CANCER, PROCESS FOR PREPARATION AND PHARMACEUTICAL COMPOSITION THEREOF” (COUNCIL OF SCIENTIFIC & INDUSTRIAL RESEARCH, priority 2020, published 2024)", "key": {"XIAP BIR2 protein": {"biological_target": "XIAP BIR2 protein (Homo sapiens, UniProt P98170)", "sequence (P98170 124-240 limits assumed)": "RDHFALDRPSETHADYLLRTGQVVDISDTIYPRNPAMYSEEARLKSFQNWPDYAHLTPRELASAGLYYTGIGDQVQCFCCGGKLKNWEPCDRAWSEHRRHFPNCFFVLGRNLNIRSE", "assay": "Fluorescence polarization competition binding assay, XIAP BIR2", "details": "displacement of AVPIAQK(FAM)-OH, fluorescence polarization; read-out: Target Binding BIR2 Ki", "protocol": "The SMAC mimetics 1-9 were tested for their ability to displace the fluorescent labeled peptide AVPIAQK(FAM)-OH from XIAP BIR2 or XIAP BIR3 protein. The dose dependent binding experiment were then carried out by sequentially increasing the concentration of SMAC mimetic compounds at constant concentration of fluorescent labeled peptide and XIAP BIR2 or XIAP BIR3 protein. IC5- values were determined from the plot draw by prism software using nonlinear least-squares analysis. The Ki values of the SMAC mimetics were calculated which was based upon the measured IC50 values, the Kd value between tracer AVPIAQK(FAM)-OH and XIAP BIR2 or XIAP BIR3 complex, and the concentrations of the protein and tracer in the competition assay by using the web based program which are freely accessed at http://sw16.im.med.umich.edu/software/calc_ki/.In-silico.\nBinding isotherms were plotted between FP reading versus log values of protein concentration in nM. The data was analysed using GraphPad prism and Kd values were determined using Boltzmann-sigmoidal non-linear regression curve fitting."}, "HCT 116 cells": {"test_system": "HCT 116 cells", "assay": "SRB cytotoxicity assay, HCT 116", "type": "cell-based", "details": "Homo sapiens, HCT-116", "protocol": "(§1) In vitro cytotoxic activities of different compounds were assessed by using standard SRB assay in different cells. The absorbance of the treated and untreated cells was measured on a multi-well scanning spectrophotometer (Epoch Microplate Reader, Biotek, USA) at a wavelength of 510 nm. Percent growth inhibition was calculated by using the formula […]."}, "CT26 cells": {"test_system": "CT26 cells", "assay": "SRB cytotoxicity assay, CT26", "type": "cell-based", "details": "Colon (Mouse)", "protocol": "as §1\n(§2) SMAC mimetics promotes tumor cell selective cytotoxic effects. SW 620, HT 29, HCT 116 and VERO cells were treated with series of Smac mimetics at 10 μM dose for 48 hours and cytotoxicity was measured by SRB assay. As C6 had shown robust in-vitro cytotoxic effect against tumor cells but not to VERO cells, we determined IC50 value of C6 against different types of cancer cell lines. ICso values are represented in Table 2."}, "HCC1806 cells": {"test_system": "HCC1806 cells", "assay": "SRB cytotoxicity assay, HCC1806", "type": "cell-based", "details": "Homo sapiens, Breast", "protocol": "as §1, §2"}, "A-549 cells": {"test_system": "A-549 cells", "assay": "SRB cytotoxicity assay, A-549", "type": "cell-based", "details": "Homo sapiens, A549, Lung", "protocol": "as §1, §2"}, "A172 cells": {"test_system": "A172 cells", "assay": "SRB cytotoxicity assay, A172", "type": "cell-based", "details": "Homo sapiens, A 172, Brain", "protocol": "as §1, §2"}, "SK-OV-3 cells": {"test_system": "SK-OV-3 cells", "assay": "SRB cytotoxicity assay, SK-OV-3", "type": "cell-based", "details": "Homo sapiens, Ovary", "protocol": "as §1, §2"}, "HEP-G2 cells": {"test_system": "HEP-G2 cells", "assay": "SRB cytotoxicity assay, HEP-G2", "type": "cell-based", "details": "Homo sapiens, HepG2, Liver", "protocol": "as §1, §2"}, "U937 cells": {"test_system": "U937 cells", "assay": "SRB cytotoxicity assay, U937", "type": "cell-based", "details": "Homo sapiens, U-937, Lymphoma", "protocol": "as §1, §2"}, "[1]": {"assay": "Stability studies of C6 (SIF, SGF, plasma, microsomes)", "type": "in vitro ADME"}, "SW-620 xenograft": {"test_system": "SW-620 xenograft", "assay": "Cisplatin resistant SW-620 xenograft model", "type": "in vivo, nude Crl: CD1-Foxnlnu mice", "details": "FIG. 7", "excerpt": "(§3) All the animals were maintained in a pathogen-free facility under a day—night cycle."}, "HCT-116 xenograft": {"test_system": "HCT-116 xenograft", "assay": "HCT-116 xenograft model", "type": "in vivo, nude Crl: CD1-Foxnlnu mice", "details": "vs control", "excerpt": "as §3"}, "[2]": {"details": "xenograft studies, FIG. 7 and FIG. 8", "protocol": "Mice were randomly assigned to groups by a blinded independent investigator. Throughout the study, the tumor was measured with an electronic digital caliper at a regular interval, and the tumor volume was calculated using standard formula V=Π/6×a2×b, where ‘a’ is the short and ‘b’ is the long tumor axis. At the end of the experiment, mice were sacrificed, and subcutaneous tumors were dissected for further studies. Parts of harvested tumors were minced into small pieces with sterile forceps and scissors and homogenized for lysate preparation."}, "[3]": {"test_system": "XIAP and cIAP1 protein expression", "assay": "Immunoblots from tumor tissues (in vivo target engagement)", "set-up": "species or system mice", "details": "vs vehicle treated tumors"}, "Annexin-V positive cells": {"test_system": "Annexin-V positive cells", "assay": "Annexin-V apoptosis analysis", "type": "cell-based", "details": "FIG. 2, left"}, "cancer cells": {"test_system": "cancer cells", "assay": "Colony formation assay", "type": "cell-based", "details": "FIG. 5", "protocol": "The clonogenic colony formation assay was done on single-cell suspension. Briefly, cells were plated in complete McCoy's medium into 12-well plates and 24 hours later, were treated with different agents at different doses either alone or in combination. The cells were cultured for two weeks with renewing the media every 3rd day. The plates were washed with PBS and fixed with ice-cold methanol followed by staining with 0.5% crystal violet in methanol for 30 min. Excess stain was removed by washing with water thoroughly and plates were allowed to dry. Representative images were captured in the gel documentation system (Bio-Rad chemidoc XRS plus) while ImageJ software (NIH) was used for analysis and quantification to monitor single cell colony formation efficiency under the different treatment combinations."}, "in vivo": {"assay": "in vivo", "details": "mouse"}, "[4]": {"assay": "Pharmacokinetics of C6 in mice (IV, SC, oral)"}}, "note": "Entries after “also recorded” stand apart in the source; their conditions may differ.", "data": [{"compound": "CC[C@H](C)[C@H](NC(=O)[C@@H]1CC[C@H](c2ccc(C)o2)N1C(=O)[C@@H](NC(=O)[C@H](C)NC)C(C)C)C(=O)NC(c1ccccc1)c1ccccc1", "note": "[Compound 6, (2S,5R)-N-((2S,3S)-1-(benzhydrylamino)-3-methyl-1-oxopentan-2-yl)-1-((S)-3-methyl-2-((S)-2-(methylamino)propanamido)butanoyl)-5-(5-methylfuran-2-yl)pyrrolidine-2-carboxamide]", "values": [{"measurement": "Ki", "setting": "XIAP BIR2 protein", "result": 3.21, "unit": "µM"}, {"measurement": "inhibition at 10 µM", "setting": "HCT 116 cells; 10 μM, 48 hours, SRB assay, read-out: In vitro cytotoxicity at 10 μM dose, HCT 116 (percent growth inhibition)", "result": "61.3 ± 2.9", "unit": "%"}, {"measurement": "IC50", "setting": "HCT 116 cells; Colon, HCT116", "result": 8.93, "unit": "µM"}, {"measurement": "IC50", "setting": "CT26 cells", "result": "> 10", "unit": "µM"}, {"measurement": "IC50", "setting": "HCC1806 cells", "result": 5.79, "unit": "µM"}, {"measurement": "IC50", "setting": "A-549 cells", "result": "> 10", "unit": "µM"}, {"measurement": "IC50", "setting": "A172 cells", "result": 6.88, "unit": "µM"}, {"measurement": "IC50", "setting": "SK-OV-3 cells", "result": 3.91, "unit": "µM"}, {"measurement": "IC50", "setting": "HEP-G2 cells", "result": 7.3, "unit": "µM"}, {"measurement": "IC50", "setting": "U937 cells", "result": 8.98, "unit": "µM"}, {"measurement": "Stability in HLM", "setting": "[1]; HLM", "result": "quite stable"}, {"measurement": "Stability in MLM", "setting": "[1]; MLM", "result": "quite stable"}, {"measurement": "Stability in SGF", "setting": "[1]; SGF, listed as C6", "result": "highly stable; also recorded: quite stable"}, {"measurement": "Stability in SIF", "setting": "[1]; SIF, listed as C6", "result": "highly stable; also recorded: quite stable"}, {"measurement": "Stability in microsome", "setting": "[1]; microsome", "result": "highly stable"}, {"measurement": "Stability in plasma", "setting": "[1]; plasma", "result": "quite stable"}, {"measurement": "In vivo anti tumor efficacy", "setting": "SW-620 xenograft", "result": "potent anti tumor efficacy"}, {"measurement": "Xenograft tumor volume", "setting": "HCT-116 xenograft; oral administration", "result": "markedly reduced"}, {"measurement": "Xenograft tumor weight", "setting": "HCT-116 xenograft; oral administration", "result": "markedly reduced"}, {"measurement": "Xenograft tumor volume", "setting": "HCT-116 xenograft; subcutaneous administration", "result": "markedly reduced"}, {"measurement": "Xenograft tumor weight", "setting": "HCT-116 xenograft; subcutaneous administration", "result": "markedly reduced"}, {"measurement": "Body weight / tolerability during course of treatment", "setting": "[2]", "result": "no weight loss was observed"}, {"measurement": "XIAP and cIAP1 protein expression in tumors", "setting": "[3]", "result": "reduced XIAP and cIAP1 protein expression"}, {"measurement": "Apoptosis (Annexin-V positive cells)", "setting": "Annexin-V positive cells", "result": "promotes smac driven apoptotic features"}, {"measurement": "Colony formation in XIAP overexpressed and DR5 knock down cells", "setting": "cancer cells; XIAP overexpressed and DR5 knock down cells", "result": "significant resistant of C6 mediated apoptotic cell death"}, {"measurement": "Colony formation: effect of Pan caspase inhibitor Z-VAD-FMK on C6 cytotoxic phenotype", "setting": "cancer cells; with Z-VAD-FMK", "result": "markedly rescues cytotoxic phenotype of C6"}, {"measurement": "half-life", "setting": "in vivo; iv, 4 mg/kg", "result": "0.19 ± 0.05", "unit": "h"}, {"measurement": "half-life", "setting": "in vivo; po, 30 mg/kg", "result": "3.84 ± 1.8", "unit": "h"}, {"measurement": "half-life", "setting": "in vivo; sc, 30 mg/kg", "result": "2.1 ± 0.15", "unit": "h"}, {"measurement": "C1", "setting": "[4]; mice, IV route, 4 mg/kg", "result": "17 ± 4", "unit": "mL/min/kg"}, {"measurement": "C1", "setting": "[4]; mice, Oral route, 30 mg/kg", "result": "29.8 ± 5.33", "unit": "mL/min/kg"}, {"measurement": "Vd", "setting": "[4]; mice, Oral route, 30 mg/kg", "result": "9.52 ± 3.75", "unit": "L/kg"}, {"measurement": "C1", "setting": "[4]; mice, SC route, 30 mg/kg", "result": "29.2 ± 4", "unit": "mL/min/kg"}, {"measurement": "Vd", "setting": "[4]; mice, SC route, 30 mg/kg", "result": "5.32 ± 0.98", "unit": "L/kg"}, {"measurement": "AUC(0-inf)", "setting": "[4]; mouse, plasma, iv, 4 mg/kg", "result": "4110 ± 852", "unit": "ng·h/mL"}, {"measurement": "Cmax", "setting": "[4]; mouse, plasma, iv, 4 mg/kg", "result": "10200 ± 2630", "unit": "ng/mL"}, {"measurement": "MRT", "setting": "[4]; mouse, plasma, iv, 4 mg/kg", "result": "1.72 ± 0.46", "unit": "h"}, {"measurement": "Tmax", "setting": "[4]; mouse, plasma, iv, 4 mg/kg", "result": 0.08, "unit": "h"}, {"measurement": "Vd", "setting": "[4]; mouse, plasma, iv, 4 mg/kg", "result": "0.28 ± 0.12", "unit": "L/kg"}, {"measurement": "bioavailability", "setting": "[4]; mouse, plasma, oral, 30 mg/kg", "result": "55.9 ± 11.2", "unit": "%"}, {"measurement": "AUC(0-inf)", "setting": "[4]; mouse, plasma, po, 30 mg/kg", "result": "17200 ± 3430", "unit": "ng·h/mL"}, {"measurement": "Cmax", "setting": "[4]; mouse, plasma, po, 30 mg/kg", "result": "4490 ± 1510", "unit": "ng/mL"}, {"measurement": "MRT", "setting": "[4]; mouse, plasma, po, 30 mg/kg", "result": "4.18 ± 1.81", "unit": "h"}, {"measurement": "Tmax", "setting": "[4]; mouse, plasma, po, 30 mg/kg", "result": "1.08 ± 0.47", "unit": "h"}, {"measurement": "AUC(0-inf)", "setting": "[4]; mouse, plasma, sc, 30 mg/kg", "result": "17400 ± 2220", "unit": "ng·h/mL"}, {"measurement": "Cmax", "setting": "[4]; mouse, plasma, sc, 30 mg/kg", "result": "5020 ± 854", "unit": "ng/mL"}, {"measurement": "MRT", "setting": "[4]; mouse, plasma, sc, 30 mg/kg", "result": "8.92 ± 1.35", "unit": "h"}, {"measurement": "Tmax", "setting": "[4]; mouse, plasma, sc, 30 mg/kg", "result": "0.88 ± 0.21", "unit": "h"}, {"measurement": "bioavailability", "setting": "[4]; mouse, plasma, subcutaneous, 30 mg/kg", "result": "56.6 ± 7.21", "unit": "%"}]}]}
